The test system of the assay is HIV. As to the kind of experiment: HIV-infected lymphocyte cultures, virus amount determined as radioactive reverse transcriptase in the culture supernatant. Type of assay: cell-based. As to conditions: for Reverse Transkriptase: HIV-Zahl in Lymphocyten-Kultur. The protocol:
Lymphocyten-Kulturen aus der Nabelschnur von Neugeborenen (H. Rübsamen-Waigmann et al. "Isolation of Variants of Lymphocytopathic Retroviruses from the Peripheral Blood and Cerebrospinal Fluid of Patients with ABC or AIDS", J. Medical Virology 19, S. 335 bis 344; 1986) wurden mit Viren, die dem Blut von AIDS-Kranken entnommen waren, geimpft. Dazu werden zu 5 ml der Lymphocyten-Kultur (1 · 10⁶ Zellen pro ml) 0,5 ml einer HIV-Suspension gegeben, die 10⁴ bis 10⁵ infektiöse Partikel pro ml enthält. Die Kulturmedien werden mit unterschiedlichen Mengen S-Adenosyl-L-methionintosylat-bis-Sulfat versetzt. Ein Drittel bis zur Hälfte des jeweiligen Kulturmediums werden nach 1 bis 2 Tagen durch frisches Kulturmedium gleicher Zusammensetzung ersetzt.
Retroviren zeichnen sich dadurch aus, daß sie ausschließlich RNA (Ribonukleinsäure) als Nukleinsäure enthalten und eine spezielle Polymerase, nämlich Reverse Transkriptase benötigen, die nach der Infektion in der Wirtszelle aus der Virus-RNA eine in die DNA der Wirtszelle einbaubare Virus-DNA bildet, vgl. H. Rübsamen "Biochemie der Tumorviren", Chemie in unserer Zeit 17, S. 169 bis 180; 1983. Daraus ergibt sich eine Nachweismethode für Retroviren, die auf der für diese typischen Reversen Transkriptase und dem durch diese in die DNA eingebauten Tritium-markierten Thymidin beruht, vgl. H. Rübsamen et al., l.c.:
In Abhängigkeit vom positiven Nachweis der Infektion durch mikroskopische Kontrolle werden nach 3 bis 5 Tagen jeweils 5 ml der überstehenden Kulturflüssigkeit durch Zentrifugieren (1o min bei 10.000 g) geklärt. Die so geklärte Probe wird bei 100.000 g/50 min zentrifugiert und der Rückstand in 60 µl eines Tris-Puffers lysiert (10 mM Tris, 0,2 % Triton X-100, 1 mM EDTA, 5 mM Dithiothreitol, 60 mM KCl, pH 7,3).
Jeweils 30 µl des Lysats werden mit 30 µl Templat (0,01 mg/ml Poly(rA)·oligo (dT) (Pharmacia, Uppsala, Schweden) in 5 mM MgCl₂, 2,4 mM Dithiothreitol, 60 mM KCl und 0,0034 mM Methyl-[³H]thymidin-5'-Triphosphat; 48 Ci/mM, Amersham, Bucks; England) 90 min bei 37° C inkubiert. Die Reaktion wird durch Zugabe von 10-proz. Laurylsarkosin bis zu einer Laurylsarkosin-Endkonzentration von 1,4 % beendet. Die freie und in das RNA/DNA-Hybrid eingebaute Radioaktivität von 10 µl des mit Laurylsarkosin versetzten Inkubats werden dann in üblicher Weise an einem DEAE-Filter getrennt, das nach dem Waschen und Trocknen in eine Szintillationsflüssigkeit gegeben wird. Die Radioaktivität wird dann mit einem Szintillationszähler gemessen. Die eingebaute Radioaktivität (Zerfälle pro min pro 5 ml) nach Abzug des Blindwertes ist dann ein Maß für die in der überstehenden Kulturflüssigkeit enthaltene Reverse Transkriptase und damit für die Menge an Retroviren, die in der Kultur enthalten sind.

For `C[S+](CC[C@H](N)C(=O)O)C[C@H]1O[C@@H](n2cnc3c(N)ncnc32)[C@H](O)[C@@H]1O` (stereo partly drawn) [Adenosylmethionin, S-Adenosyl-L-methionintosylat-bis-Sulfat], the “Reverse Transkriptase” value was 114 000 counts/min und 5 ml (Adenosylmethionin 4 µg/ml); 86 000 counts/min und 5 ml (Adenosylmethionin 40 µg/ml); 73 000 counts/min und 5 ml (Adenosylmethionin 200 µg/ml); 60 000 counts/min und 5 ml (Adenosylmethionin 400 µg/ml); 29 000 counts/min und 5 ml (Adenosylmethionin 1000 µg/ml). The IC50 (Human immunodeficiency virus 1, Lymphocyte, read-out: Halbwertskonzentration, bei der die Retrovirenkonzentration auf die Hälfte zurückgeht) was 100 to 200 µg/mL.

The record behind these values is patent publication EP0516660B1, “USE OF S-ADENOSYL METHIONINE AS AN AGENT AGAINST VIRAL INFECTIONS BY RETROVIRUSES” (Grundmann, Ewald, Dr., priority 1990, dated 1991).
